Experimental data taken from the supplement of paper PMC13380429.

Legend:
Conditions in all cases: 72 h
Caco-2 [1] = assay: cell viability relative to DMSO; higher = less toxic
Calu-3 [2] = assay: as above
HepG2 [3] = assay: as above
U2OS [4] = assay: as above
Vero E6 [5] = assay: as above
Caco-2 [6] = assay: relative viability EC50 (midpoint between 100% and the lowest measured viability); higher = less toxic
Calu-3 [7] = assay: as above
HepG2 [8] = assay: as above
U2OS [9] = assay: as above
Vero E6 [10] = assay: as above
Caco-2 [11] = assay: drug sensitivity score (DSS) for viability; higher = more toxic; extreme values may be limits of the assay
Calu-3 [12] = assay: as above
HepG2 [13] = assay: as above
U2OS [14] = assay: as above
Vero E6 [15] = assay: as above

Structure (SMILES) | cell viability (Caco-2 [1]; 1 nM) | cell viability (Caco-2 [1]; 10 nM) | cell viability (Caco-2 [1]; 100 nM) | cell viability (Caco-2 [1]; 1000 nM) | cell viability (Caco-2 [1]; 10000 nM) | cell viability (Calu-3 [2]; 1 nM) | cell viability (Calu-3 [2]; 10 nM) | cell viability (Calu-3 [2]; 100 nM) | cell viability (Calu-3 [2]; 1000 nM) | cell viability (Calu-3 [2]; 10000 nM) | cell viability (HepG2 [3]; 1 nM) | cell viability (HepG2 [3]; 10 nM) | cell viability (HepG2 [3]; 100 nM) | cell viability (HepG2 [3]; 1000 nM) | cell viability (HepG2 [3]; 10000 nM) | cell viability (U2OS [4]; 1 nM) | cell viability (U2OS [4]; 10 nM) | cell viability (U2OS [4]; 100 nM) | cell viability (U2OS [4]; 1000 nM) | cell viability (U2OS [4]; 10000 nM) | cell viability (Vero E6 [5]; 1 nM) | cell viability (Vero E6 [5]; 10 nM) | cell viability (Vero E6 [5]; 100 nM) | cell viability (Vero E6 [5]; 1000 nM) | cell viability (Vero E6 [5]; 10000 nM) | relative viability EC50 (Caco-2 [6]) | relative viability EC50 (Calu-3 [7]) | relative viability EC50 (HepG2 [8]) | relative viability EC50 (U2OS [9]) | relative viability EC50 (Vero E6 [10]) | drug sensitivity score (Caco-2 [11]) | drug sensitivity score (Calu-3 [12]) | drug sensitivity score (HepG2 [13]) | drug sensitivity score (U2OS [14]) | drug sensitivity score (Vero E6 [15])
CO[C@H](C(=O)[C@@H](O)[C@@H](C)O)[C@@H]1Cc2cc3cc(O[C@H]4C[C@@H](O[C@H]5C[C@@H](O)[C@H](O)[C@@H](C)O5)[C@@H](O)[C@@H](C)O4)c(C)c(O)c3c(O)c2C(=O)[C@H]1O[C@H]1C[C@@H](O[C@H]2C[C@@H](O[C@H]3C[C@](C)(O)[C@H](O)[C@@H](C)O3)[C@H](O)[C@@H](C)O2)[C@H](O)[C@@H](C)O1 [plicamycin] | 101% | 95% | 42.4% | 58.1% | 65.5% | 107% | 88.4% | 48.5% | 24% | 28.1% | 107% | 99.9% | 5.2% | 4.4% | 6.1% | 96.4% | 100% | 5.9% | 1% | 1.5% | 92.6% | 105% | 95.6% | 73.5% | 4.9% | 0.0245 µM | 0.0509 µM | 0.0321 µM | 0.036 µM | 1.46 µM | 18.9 | 20.8 | 29.1 | 29.5 | 9.2
N[C@@H](Cc1ccc(O)cc1)C(=O)O [plovamer-acetate] | 119% | 83.9% | 84.4% | 90.7% | 92.1% | 97.9% | 98.5% | 105% | 104% | 102% | 87.2% | 94.4% | 93% | 90.1% | 80.1% | 99.1% | 94.8% | 102% | 93.3% | 97.6% | 106% | 102% | 96.3% | 104% | 95.5% | > 10 µM | > 10 µM | > 10 µM | > 10 µM | > 10 µM | 4.2 | 0 | 0 | 0 | 0
COCCCN1CCC(NC(=O)c2cc(Cl)c(N)c3c2OCC3)CC1 [prucalopride] | 102% | 82.8% | 102% | 102% | 101% | 104% | 97% | 90.1% | 97.6% | 94.9% | 96.7% | 102% | 96.5% | 91% | 96.5% | 96.9% | 97.7% | 97.7% | 97.9% | 102% | 106% | 103% | 105% | 101% | 95% | > 10 µM | > 10 µM | > 10 µM | > 10 µM | > 10 µM | 0 | 0 | 0 | 0 | 0
CCN1CCC[C@H]1CNC(=O)c1c(O)c(Cl)cc(Cl)c1OC [raclopride] | 91.2% | 88.3% | 93.5% | 84% | 96.6% | 97.9% | 94% | 92.4% | 96.7% | 97.4% | 99.6% | 104% | 93.7% | 101% | 93.1% | 101% | 95.2% | 96.6% | 95% | 99.9% | 101% | 100% | 94.7% | 93% | 100% | > 10 µM | > 10 µM | > 10 µM | > 10 µM | > 10 µM | 0 | 0 | 0 | 0 | 0
COC(=O)CC[C@@H]1N=C(c2ccccn2)c2cc(Br)ccc2-n2c(C)cnc21 [remimazolam] | 95.2% | 101% | 95.3% | 99.2% | 91.7% | 104% | 94.1% | 111% | 90% | 95.2% | 97.1% | 83.5% | 103% | 100% | 108% | 96.4% | 105% | 97.7% | 98% | 97.8% | 103% | 96.5% | 99.3% | 96% | 99.8% | > 10 µM | > 10 µM | > 10 µM | > 10 µM | > 10 µM | 0 | 0 | 0 | 0 | 0
NC(=O)c1ncn([C@@H]2O[C@H](CO)[C@@H](O)[C@H]2O)n1 [ribavirin] | 109% | 97.6% | 108% | 113% | 82.9% | 104% | 108% | 111% | 88.6% | 92.9% | 95.7% | 104% | 99.8% | 121% | 86.7% | 92% | 93.8% | 99.5% | 95.9% | 113% | 101% | 101% | 98.5% | 104% | 104% | > 10 µM | > 10 µM | > 10 µM | > 10 µM | > 10 µM | 0.2 | 0.3 | 0 | 0 | 0
Cc1ccc(NC2=CC(=O)c3sc(C)nc3C2=O)cc1 [ryuvidine] | 94.2% | 91.8% | 92.7% | 77.9% | 0.9% | 115% | 95.8% | 109% | 102% | 2.7% | 95.4% | 106% | 97.9% | 98.1% | 8.5% | 102% | 97.3% | 104% | 99.3% | 0% | 100% | 97.7% | 97.4% | 96.4% | 16.2% | 1.64 µM | 3.29 µM | 3.02 µM | 3.12 µM | 2.84 µM | 9 | 5.2 | 5.3 | 5.7 | 5.2
